According to paper PMC4754667 (Clinical genitourinary cancer, 2013):

Legend:
[1] = clinical; conditions: human, in vivo, Mean
[2] = system: Ang2; conditions: patients with metastatic RCC under sunitinib treatment; cited from earlier work

AUC(0-t) ([1]; 3 mg/kg, Sorafenib AUC (AUC0-12)) [µg·h/mL] | Cmax ([1]; 3 mg/kg, Sorafenib Cmax) [µg/mL] | Tmax ([1]; 3 mg/kg, Sorafenib Tmax) [h] | AUC(0-t) ([1]; 10 mg/kg, Sorafenib AUC (AUC0-12)) [µg·h/mL] | Cmax ([1]; 10 mg/kg, Sorafenib Cmax) [µg/mL] | Tmax ([1]; 10 mg/kg, Sorafenib Tmax) [h] | AUC(0-t) ([1]; 3 mg/kg, Sunitinib AUC (AUC0-24)) [µg·h/mL] | Cmax ([1]; 3 mg/kg, Sunitinib Cmax) [µg/mL] | Tmax ([1]; 3 mg/kg, Sunitinib Tmax) [h] | AUC(0-t) ([1]; 10 mg/kg, Sunitinib AUC (AUC0-24)) [µg·h/mL] | Cmax ([1]; 10 mg/kg, Sunitinib Cmax) [µg/mL] | Tmax ([1]; 10 mg/kg, Sunitinib Tmax) [h] | SMILES | decrease in plasma Ang2 levels [2] [%]
2.58 | 0.466 | 1.1 | 3.13 | 0.559 | 1 |  |  |  |  |  |  | CNC(=O)c1cc(Oc2ccc(NC(=O)Nc3ccc(Cl)c(C(F)(F)F)c3)cc2)ccn1 [Sorafenib, sorafenib] | 
 |  |  |  |  |  | 1.3 | 0.0642 | 8 | 1.25 | 0.0618 | 8.1 | CCN(CC)CCNC(=O)c1c(C)[nH]c(/C=C2\C(=O)Nc3ccc(F)cc32)c1C [Sunitinib, sunitinib] | 80
